In patent US10947242B2, “[1,2,4]triazolo[1,5and#8208;A]pyrimidine compounds as PDE2 inhibitors” (Janssen Pharmaceutica NV, priority 2016, dated 2021):
“And” between values parts separate entries of the source, which are not always exact repeats. Equal values may be shown once. Read-outs that look alike come from different tables or passages of the source.

How the values were obtained:
[1] = target: T1, Human recombinant PDE10A (hPDE10A) (Homo sapiens, UniProt Q9Y233); experiment: In vitro assay PDE10A, human clone (SPA, 3H-cAMP hydrolysis); format: biochemical
T1 construct: His tag (inferred from metal chelate purification); made in house; host or cells: Sf9 insect cells (baculovirus)
T1 sequence (Q9Y233 267-1055): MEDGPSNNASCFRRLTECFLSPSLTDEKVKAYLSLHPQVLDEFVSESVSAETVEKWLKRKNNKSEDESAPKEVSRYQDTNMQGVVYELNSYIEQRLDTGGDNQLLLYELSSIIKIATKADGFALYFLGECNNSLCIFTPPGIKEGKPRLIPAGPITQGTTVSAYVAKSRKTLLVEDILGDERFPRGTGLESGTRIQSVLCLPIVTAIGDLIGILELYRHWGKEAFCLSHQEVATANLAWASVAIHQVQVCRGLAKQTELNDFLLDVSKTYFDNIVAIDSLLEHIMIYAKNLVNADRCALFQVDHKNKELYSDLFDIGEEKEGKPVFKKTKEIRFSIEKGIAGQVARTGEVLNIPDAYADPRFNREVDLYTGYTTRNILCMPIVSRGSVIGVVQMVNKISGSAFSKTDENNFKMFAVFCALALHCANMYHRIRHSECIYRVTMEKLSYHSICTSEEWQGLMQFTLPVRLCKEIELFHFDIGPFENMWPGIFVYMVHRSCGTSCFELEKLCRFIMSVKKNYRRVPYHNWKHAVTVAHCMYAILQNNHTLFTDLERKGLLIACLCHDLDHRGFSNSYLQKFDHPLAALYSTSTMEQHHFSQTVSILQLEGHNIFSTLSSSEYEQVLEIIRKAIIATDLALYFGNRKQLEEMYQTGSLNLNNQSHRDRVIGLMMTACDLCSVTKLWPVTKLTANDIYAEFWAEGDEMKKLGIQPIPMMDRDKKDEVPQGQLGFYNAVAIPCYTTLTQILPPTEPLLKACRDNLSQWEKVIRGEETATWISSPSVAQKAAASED
Outline: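 Hydrolysis of 3H-cAMP (60 nM cAMP, 0.008 μCi tracer) proceeded for 60 min at room temperature, with the product detected by SPA bead scintillation counting. The enzyme was hPDE10A from baculovirus-infected Sf9 cells in Tris pH 7.8 buffer with MgCl2 and EGTA, and compounds were at 1% DMSO final. Blanks lacked enzyme.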

[2] = target: T2, Human recombinant PDE2A (hPDE2A) (Homo sapiens, UniProt O00408); experiment: In vitro assay PDE2A (SPA, 3H-cGMP hydrolysis); format: biochemical; details: for Emax: read-out: hPDE2A Emax
T2 construct: His tag (inferred from metal chelate purification); made in house; host or cells: Sf9 insect cells (baculovirus)
T2 sequence (O00408 whole entry): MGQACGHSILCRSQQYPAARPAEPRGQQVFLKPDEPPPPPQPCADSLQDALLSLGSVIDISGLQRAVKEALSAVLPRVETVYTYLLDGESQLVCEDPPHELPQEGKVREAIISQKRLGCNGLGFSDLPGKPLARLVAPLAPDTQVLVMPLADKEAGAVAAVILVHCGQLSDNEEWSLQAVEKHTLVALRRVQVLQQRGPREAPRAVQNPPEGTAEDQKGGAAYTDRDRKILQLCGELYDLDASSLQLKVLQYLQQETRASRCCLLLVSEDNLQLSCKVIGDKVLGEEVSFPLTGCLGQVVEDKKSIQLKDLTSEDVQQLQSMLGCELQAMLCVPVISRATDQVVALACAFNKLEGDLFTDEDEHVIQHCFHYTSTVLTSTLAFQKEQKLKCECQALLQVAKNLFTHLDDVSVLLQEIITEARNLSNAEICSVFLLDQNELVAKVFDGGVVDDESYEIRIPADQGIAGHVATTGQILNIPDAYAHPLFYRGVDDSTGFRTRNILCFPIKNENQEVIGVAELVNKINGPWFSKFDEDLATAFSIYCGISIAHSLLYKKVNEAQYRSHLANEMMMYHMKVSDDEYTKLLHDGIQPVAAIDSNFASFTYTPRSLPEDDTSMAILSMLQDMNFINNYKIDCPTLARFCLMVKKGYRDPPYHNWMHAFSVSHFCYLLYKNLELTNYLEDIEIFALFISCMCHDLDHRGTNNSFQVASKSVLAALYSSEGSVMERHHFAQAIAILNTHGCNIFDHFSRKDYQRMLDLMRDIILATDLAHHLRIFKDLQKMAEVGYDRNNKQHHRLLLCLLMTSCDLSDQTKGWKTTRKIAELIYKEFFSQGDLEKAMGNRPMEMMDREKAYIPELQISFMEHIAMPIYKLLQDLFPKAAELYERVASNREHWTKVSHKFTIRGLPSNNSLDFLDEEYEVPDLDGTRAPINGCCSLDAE

[3] = target: T3, Human recombinant PDE3A (hPDE3A) (Homo sapiens, UniProt Q14432); experiment: In vitro assay PDE3A (SPA, 3H-cAMP hydrolysis); format: biochemical; details: for IC50: hPDE3B pIC50, read-out: pIC50 (converted); for Emax: read-out: hPDE3B Emax, read-out: Emax;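 on all read-outs here: the method names PDE3A and the table heading PDE3B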
T3 construct: purchased Scottish Biomedical; host or cells: Sf9 insect cells
T3 sequence (Q14432 whole entry): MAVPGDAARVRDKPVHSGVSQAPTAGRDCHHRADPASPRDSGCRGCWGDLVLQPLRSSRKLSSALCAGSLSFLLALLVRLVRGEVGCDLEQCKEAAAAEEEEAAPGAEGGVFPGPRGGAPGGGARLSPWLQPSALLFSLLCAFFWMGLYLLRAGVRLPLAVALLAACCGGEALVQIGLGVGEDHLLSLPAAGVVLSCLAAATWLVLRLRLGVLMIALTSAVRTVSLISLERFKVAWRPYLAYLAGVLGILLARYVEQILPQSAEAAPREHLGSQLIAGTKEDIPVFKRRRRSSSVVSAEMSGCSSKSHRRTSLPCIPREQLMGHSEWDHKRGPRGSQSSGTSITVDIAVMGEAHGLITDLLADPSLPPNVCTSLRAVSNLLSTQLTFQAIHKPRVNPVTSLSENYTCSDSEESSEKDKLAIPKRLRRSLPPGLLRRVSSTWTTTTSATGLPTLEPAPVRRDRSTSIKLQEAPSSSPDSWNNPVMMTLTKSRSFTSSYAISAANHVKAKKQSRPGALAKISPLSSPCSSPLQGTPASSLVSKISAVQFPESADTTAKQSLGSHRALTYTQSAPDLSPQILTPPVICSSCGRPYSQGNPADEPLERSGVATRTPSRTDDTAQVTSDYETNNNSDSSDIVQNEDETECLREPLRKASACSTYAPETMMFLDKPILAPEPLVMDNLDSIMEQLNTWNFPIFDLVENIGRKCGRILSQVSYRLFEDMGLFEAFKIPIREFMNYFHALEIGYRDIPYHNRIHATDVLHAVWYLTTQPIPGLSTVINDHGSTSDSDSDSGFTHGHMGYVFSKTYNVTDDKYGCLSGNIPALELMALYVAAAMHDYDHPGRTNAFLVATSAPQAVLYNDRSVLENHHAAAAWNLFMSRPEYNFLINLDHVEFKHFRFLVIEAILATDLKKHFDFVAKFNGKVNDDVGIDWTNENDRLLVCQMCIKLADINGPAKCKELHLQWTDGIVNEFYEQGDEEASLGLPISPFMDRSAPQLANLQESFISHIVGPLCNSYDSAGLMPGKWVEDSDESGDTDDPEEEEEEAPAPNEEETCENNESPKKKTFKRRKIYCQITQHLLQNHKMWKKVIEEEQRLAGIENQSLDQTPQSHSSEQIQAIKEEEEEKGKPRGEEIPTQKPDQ
Outline: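 Radiometric SPA measuring [3H]-cAMP hydrolysis (0.4 μM cAMP, 2.4 μCi/ml) over 60 min at room temperature, in Tris pH 7.8 buffer with MgCl2 and EGTA, 1% DMSO. Enzyme: recombinant human brain PDE3A expressed in Sf9 cells, used as partially purified lysate. Counts compared with enzyme-free blanks and vehicle controls.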

PDE2A = target: T4, PDE2A (Rattus norvegicus, UniProt Q01062); experiment: PDE2 occupancy by test compounds, ex-vivo autoradiography with [3H]B-17a; format: in vivo, Male Wistar rats; details: for ED50: read-out: PDE Occupancy ED50; for receptor occupancy at 10 mg/kg: percentage receptor occupancy, ex-vivo autoradiography, striatum
T4 construct: Twenty μm-thick striatal sections were cut; from tissue; host or cells: rat brain, striatal sections
T4 sequence (Q01062 1-928): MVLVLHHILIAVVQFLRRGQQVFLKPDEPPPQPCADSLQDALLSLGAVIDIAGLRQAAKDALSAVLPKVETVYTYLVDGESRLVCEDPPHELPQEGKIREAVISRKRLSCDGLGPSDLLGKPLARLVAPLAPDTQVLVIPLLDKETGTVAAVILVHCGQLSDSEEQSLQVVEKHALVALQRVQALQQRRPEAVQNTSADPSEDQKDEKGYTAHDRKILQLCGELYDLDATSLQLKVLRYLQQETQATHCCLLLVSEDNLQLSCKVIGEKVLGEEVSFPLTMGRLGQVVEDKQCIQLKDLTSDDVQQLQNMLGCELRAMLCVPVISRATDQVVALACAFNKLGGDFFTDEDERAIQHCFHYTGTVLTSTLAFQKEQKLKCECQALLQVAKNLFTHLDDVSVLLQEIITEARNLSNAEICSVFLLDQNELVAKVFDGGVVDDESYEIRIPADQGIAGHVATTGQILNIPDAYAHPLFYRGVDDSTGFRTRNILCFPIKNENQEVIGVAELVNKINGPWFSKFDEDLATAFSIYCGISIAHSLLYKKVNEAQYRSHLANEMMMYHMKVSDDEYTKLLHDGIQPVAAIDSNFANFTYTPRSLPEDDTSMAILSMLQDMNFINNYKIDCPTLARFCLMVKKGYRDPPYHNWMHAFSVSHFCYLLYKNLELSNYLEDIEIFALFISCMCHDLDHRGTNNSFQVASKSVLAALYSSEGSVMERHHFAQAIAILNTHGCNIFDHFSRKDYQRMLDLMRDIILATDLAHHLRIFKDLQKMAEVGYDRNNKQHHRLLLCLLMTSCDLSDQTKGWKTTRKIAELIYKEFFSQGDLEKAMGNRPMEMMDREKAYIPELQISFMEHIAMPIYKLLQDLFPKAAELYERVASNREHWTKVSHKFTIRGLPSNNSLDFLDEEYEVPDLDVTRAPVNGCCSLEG

[4] = human clone (h), default, read-out: hPDE10A2 Emax
[5] = human clone (h), default, read-out: hPDE10A2 pIC50 (converted)
[6] = human clone by default (no (r) mark), read-out: hPDE10A2 or rPDE10A2 Emax
[7] = human clone by default (no (r) mark), read-out: hPDE10A2 or rPDE10A2 pIC50 (converted)
[8] = human recombinant PDE2A, 10 μM cGMP substrate, read-out: hPDE2A pIC50 (converted)
[9] = read-out: hPDE2A pIC50 (converted)
[10] = route PO (oral), drug dose producing 50% receptor occupancy

SMILES | Emax [1, 4] [%] | IC50 [1, 5] | Emax [1, 6] [%] | IC50 [1, 7] [nM] | IC50 [2, 8] | Emax ([2]; human recombinant PDE2A) [%] | Emax [2] [%] | IC50 [2, 9] [nM] | IC50 [3] [nM] | Emax [3] [%] | melting point [°C] | ED50 (PDE2A; [10]) [mg/kg] | receptor occupancy at 10 mg/kg (PDE2A; sc, route SC (subcutaneous)) [%] | receptor occupancy at 10 mg/kg (PDE2A; po, route PO (oral)) [%] | hPDE3B Emax [3] | receptor occupancy at 10 mg/kg (PDE2A; route SC (subcutaneous)) [%] | hPDE10A2 Emax ([1]; human clone (h), default) | ED50 (PDE2A; po) [mg/kg] | receptor occupancy at 10 mg/kg (PDE2A; route PO (oral)) [%] | IC50 ([2]; hPDE2A pIC50) [nM]
C[C@@H]1CCN(C(=O)c2ccc3ncsc3c2)C[C@H]1c1cc(C(F)F)nc2ncnn12 [Compound 228] | 100 | 17 nM | 100 | 17 | 0.224 nM | 100 | 100 | 0.224 | 1200 | 91 | 178.21 | 1.5 | 92 | – | – | – | – | – | – | –
Cc1csc(C(=O)N2CC[C@@H](C)[C@H](c3cc(C(F)F)nc4ncnn34)C2)c1 [Compound 126] | 97 | 112 nM | – | – | 2.09 nM | 101 | 101 | 2.09 | 6030 | 65 | 114.32 | – | – | 31 | – | – | – | – | – | –
Cc1cc([C@@H]2CN(C(=O)c3cc(Cl)ncc3C(F)(F)F)CC[C@H]2C)n2ncnc2n1 [Compound 270] | 96 | 269 nM | 96 | 269 | – | – | 100 | 2.34 | > 10000 | 29 | 213.25 | – | – | 6 | – | – | – | – | – | –
Cc1cc(C(=O)N2CC[C@@H](C)[C@H](c3cc(C(F)F)nc4ncnn34)C2)cc(OC(F)F)n1 [Compound 281] | – | – | 99 | 110 | – | – | 100 | 1.66 | 2240 | 87 | 114.59 | 4.2 | – | 57 | – | – | – | – | – | –
Cc1cc(C(=O)N2[C@H]3CC[C@H](c4cc(C(F)F)nc5ncnn45)[C@@H]2CC3)cc(C)n1 [Compound 29] | 90 | 692 nM | – | – | 1.51 nM | 101 | 101 | 1.51 | > 10000 | – | 176.52 | – | – | – | 18 | 31 | – | – | – | –
C[C@@H]1CCN(C(=O)c2cc3ccccc3o2)C[C@H]1c1cc(C(F)F)nc2ncnn12 [Compound 69] | 100 | 45.7 nM | – | – | 0.407 nM | 102 | 102 | 0.407 | 380 | 95 | 209.73 | – | – | 0 | – | – | – | – | – | –
O=C(c1ccc2ncsc2c1)N1[C@H]2CC[C@H](c3cc(C(F)F)nc4ncnn34)[C@@H]1CC2 [Compound 25a] | 94 | 589 nM and 389 nM | – | – | 0.708 nM | 100 | 100 | 1.07 | 8710 | 54 | 240.33 | – | – | – | – | 66 | 96 | 4 | – | –
C[C@@H]1CCN(C(=O)c2ccnc(C3CC3)c2F)C[C@H]1c1cc(C(F)F)nc2ncnn12 [Compound 120] | 96 | 200 nM | – | – | 1.74 nM | 100 | 100 | 1.74 | 708 | 95 | 173.99 | – | – | 12 | – | – | – | – | – | –
Cc1cc(C(=O)N2CC[C@@H](C)[C@H](c3cc(C(F)F)nc4ncnn34)C2)cnc1C [Compound 49] | 95 | 513 nM | – | – | 2.09 nM | 99 | 99 | 2.09 | 5750 | 42 | 263.81 | – | 12 | – | – | – | – | – | – | –
COc1ccc(C(=O)N2CC[C@@H](C)[C@H](c3cc(C(F)F)nc4ncnn34)C2)cc1OC(F)F [Compound 133] | 98 | 135 nM | – | – | 2.95 nM | 100 | 100 | 2.95 | 1620 | 85 | 152.33 | – | – | -19 | – | – | – | – | – | –
C[C@@H]1CCN(C(=O)c2ccc(Cl)c(C3CC3)c2)C[C@H]1c1cc(C(F)F)nc2ncnn12 [Compound 72] | 92 | 105 nM | – | – | 1.02 nM | 100 | 100 | 1.02 | > 1000 | 46 | 177.6 | – | – | 0 | – | – | – | – | – | –
Cc1cc([C@@H]2CN(C(=O)c3cc(C4CC4)ncc3F)CC[C@H]2C)n2ncnc2n1 [Compound 224] | – | – | 99 | 70.8 | – | – | 100 | 3.02 | 1050 | 87 | 153.14 | – | – | -6 | – | – | – | – | – | –
O=C(c1ccc(Cl)c(Cl)c1)N1[C@H]2CC[C@H](c3cc(C(F)F)nc4ncnn34)[C@@H]1CC2 [Compound 356] | – | – | 92 | 933 | – | – | 99 | 5.37 | 5890 | 65 | 187.93 | – | – | – | – | – | – | 5.55 | 51 | –
C[C@@H]1CCN(C(=O)c2ccc3ncc(F)cc3c2)C[C@H]1c1cc(C(F)F)nc2ncnn12 [Compound 332] | – | – | 98 | 30.9 | – | – | 99 | 4.79 | 1200 | 90 | 183.18 | – | – | 8 | – | – | – | – | – | –
CCn1ccc2cc(C(=O)N3[C@H]4CC[C@H](c5cc(C(F)F)nc6ncnn56)[C@@H]3CC4)ccc21 [Compound 363] | – | – | 98 | 178 | – | – | 99 | 0.275 | 617 | 97 | 221.75 | – | – | – | – | – | – | – | -11 | –
C[C@@H]1CCN(C(=O)c2ccc(F)c(C(F)F)c2)C[C@H]1c1cc(C(F)F)nc2ncnn12 [Compound 191] | 97 | 224 nM | – | – | 12.9 nM | 100 | 100 | 12.9 | 3890 | 74 | 162.07 | – | – | -18 | – | – | – | – | – | –
C[C@@H]1CCN(C(=O)c2ccc3ocnc3c2)C[C@H]1c1cc(C(F)F)nc2ncnn12 [Compound 116] | 99 | 9.77 nM and 79.4 nM | – | – | 1.15 nM and 1.12 nM | 100 | 101 | 1.12 | 2190 | 82 | 192.09 | – | 3 | – | – | – | 98 | – | – | –
C[C@@H]1CCN(C(=O)c2cc(Cl)cc(Cl)c2)C[C@H]1c1cc(C(F)F)nc2ncnn12 [Compound 334] | – | – | 98 | 100 | – | – | 100 | – | 2340 | 84 | 239.87 | – | – | 17 | – | – | – | – | – | 2.45
